According to US11407763B2, “Tryptophan hydroxylase inhibitor and pharmaceutical composition including same” (GWANGJU INSTITUTE OF SCIENCE AND TECHNOLOGY, priority 2017, dated 2022):
pIC50: −log10 of the molar value. Counter-ions that a name gives are not always drawn.

Target: TPH1 (tryptophan hydroxylase 1) (Homo sapiens (Human), UniProt P17752)
Experiment: TPH1 inhibitor screening assay kit (BPS Bioscience), fluorescence
Format: biochemical
Method: In order to confirm the inhibitory effect of the compound represented by formula 1 according to the present invention on the tryptophan hydroxylase activity, it was measured using a TPH1 (tryptophan hydroxylase 1) inhibitor screening assay kit (BPS Bioscience, Catalog #72053). The TPH1 inhibitor screening assay kit was used according to the manufacturer's manual.
Particularly, the synthesized compound was dissolved in DMSO, which was added to a 96-well microplate (10 ? /well), to which TPH1 enzyme was added (40 ? /well). Then, TPH1 reaction solution was added to the microplate (50 ? /well) and the microplate was shaded with aluminum foil. The microplate was transferred to 4° C. environment, shaken carefully and incubated for 4 hours. After adding a quench solution to the microplate (10 ? /well), the TPH1 activity was measured by reading the degree of fluorescence color development with a Flexstation3 microplate reader. At this time, the excitation spectrum was 300 nm and the emission spectrum was 360 nm.

[1] = TPH1 enzyme, 4 hours at 4° C., ex 300 nm / em 360 nm
[2] = TPH1 enzyme, 4 hours at 4° C., ex 300 nm / em 360 nm, hydrochloride

TPH1 (tryptophan hydroxylase 1), sequence (P17752 whole entry): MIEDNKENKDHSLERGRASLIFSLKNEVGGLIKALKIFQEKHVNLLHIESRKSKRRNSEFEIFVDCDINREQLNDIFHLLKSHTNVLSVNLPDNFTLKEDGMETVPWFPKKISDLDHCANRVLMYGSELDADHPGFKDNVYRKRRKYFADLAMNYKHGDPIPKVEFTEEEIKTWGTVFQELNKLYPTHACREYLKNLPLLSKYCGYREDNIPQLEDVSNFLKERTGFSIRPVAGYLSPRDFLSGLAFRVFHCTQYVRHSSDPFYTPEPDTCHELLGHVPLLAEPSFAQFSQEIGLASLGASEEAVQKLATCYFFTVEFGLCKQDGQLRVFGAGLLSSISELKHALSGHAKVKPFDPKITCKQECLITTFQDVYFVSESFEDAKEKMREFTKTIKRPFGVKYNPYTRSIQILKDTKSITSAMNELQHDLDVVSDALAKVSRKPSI

SMILES: Cc1ccn(-c2cc(Cl)ccc2[C@@H](Oc2ncnc3c(-c4ccc(C[C@H](N)C(=O)O)cc4)csc23)C(F)(F)F)n1 [Example 8, (S)-2-amino-3-(4-(4-((R)-1-(4-chloro-2-(3-methyl-1H-pyrazole-1-yl)phenyl)-2,2,2-trifluoroethoxy)thieno[3,2-d]pyrimidine-7-yl)phenyl)propionic acid hydrochloride]
- pIC50 (TPH1): 7.44
- pIC50 [1]: 7.44

SMILES: COc1cccc(-c2ccc(Cn3ccc4c(-c5ccc(C[C@H](N)C(=O)O)cc5)nc(N)nc43)cc2)c1 [Example 12, (S)-2-amino-3-(4-(2-amino-7-((3′-methoxy-[1,1′-biphenyl]-4-yl)methyl)-7H-pyrrolo[2,3-d]pyrimidine-4-yl)phenyl)propionic acid hydrochloride]
- pIC50 [1]: 6.53

SMILES: CCOC(=O)[C@@H](N)Cc1ccc(-c2csc3c(O[C@H](c4ccc(Cl)cc4-n4ccc(C)n4)C(F)(F)F)ncnc23)cc1 [Example 22, ethyl (S)-2-amino-3-(4-(4-((R)-1-(4-chloro-2-(3-methyl-1H-pyrazole-1-yl)phenyl)-2,2,2-trifluoroethoxy)thieno[3,2-d]pyrimidine-7-yl)phenyl)propionate hydrochloride]
- pIC50 [1]: 6.00

SMILES: COc1cccc(-c2ccc(Cn3ccc4c(-c5ccc(C[C@H](N)C(=O)O)cc5)ncnc43)cc2)c1 [Example 23, (S)-2-amino-3-(4-(7-((3′-methoxy-[1,1′-biphenyl]-4-yl)methyl)-7H-pyrrolo[2,3-d]pyrimidine-4-yl)phenyl)propionic acid hydrochloride]
- pIC50 [1]: 6.24

SMILES: N[C@@H](Cc1ccc(-c2csc3c(O[C@H](c4ccc(Cl)cc4-c4cccc(F)c4)C(F)(F)F)ncnc23)cc1)C(=O)O [Example 24, (S)-2-amino-3-(4-(4-((R)-1-(5-chloro-3′-fluoro-[1,1′-biphenyl]-2-yl)-2,2,2-trifluoroethoxy)thieno[3,2-d]pyrimidine-7-yl)phenyl)propionic acid hydrochloride]
- pIC50 [1]: 6.25

SMILES: N[C@@H](Cc1ccc(-c2csc3c(OC(c4ccc(Cl)cc4-c4ccccc4)C(F)(F)F)ncnc23)cc1)C(=O)O (stereo partly drawn) [Example 26, (2S)-2-amino-3-(4-(4-(1-(5-chloro-[1,1′-biphenyl]-2-yl)-2,2,2-trifluoroethoxy)thieno[3,2-d]pyrimidine-7-yl)phenyl)propionic acid hydrochloride]
- pIC50 [1]: 6.17

SMILES: Cc1ccn(-c2cc(Cl)ccc2[C@@H](Oc2ncnc3c(C4=CCC(C[C@H](N)C(=O)O)CC4)csc23)C(F)(F)F)n1 (stereo partly drawn) [Example 30, (2S)-2-amino-3-(4-(4-((R)-1-(4-chloro-2-(3-methyl-1H-pyrazole-1-yl)phenyl)-2,2,2-trifluoroethoxy)thieno[3,2-d]pyrimidine-7-yl)cyclohex-3-ene-1-yl)propionic acid hydrochloride]
- pIC50 [1]: 5.82

SMILES: Cc1ccn(-c2cc(Cl)ccc2[C@@H](Oc2cc(C3=CCC(C[C@H](N)C(=O)O)CC3)nc(N)n2)C(F)(F)F)n1 (stereo partly drawn) [Example 31, (2S)-2-amino-3-(4-(2-amino-6-((R)-1-(4-chloro-2-(3-methyl-1H-pyrazole-1-yl)phenyl)-2,2,2-trifluoroethoxy)pyrimidine-4-yl)cyclohex-3-ene-1-yl)propionic acid hydrochloride]
- pIC50 [2]: 6.94

SMILES: Cc1ccn(-c2cc(Cl)ccc2[C@@H](Oc2cc(C3=CCC(C[C@H](N)C(=O)O)CC3)nc(C)n2)C(F)(F)F)n1 (stereo partly drawn) [Example 32, (2S)-2-amino-3-(4-(6-((R)-1-(4-chloro-2-(3-methyl-1H-pyrazole-1-yl)phenyl)-2,2,2-trifluoroethoxy)-2-methylpyrimidine-4-yl)cyclohex-3-ene-1-yl)propionic acid hydrochloride]
- pIC50 [1]: 5.74

SMILES: COc1cccc(-c2ccc([C@@H](Oc3cc(C4=CCC(C[C@H](N)C(=O)O)CC4)nc(N)n3)C(F)(F)F)cc2)c1 (stereo partly drawn) [Example 34, (2S)-2-amino-3-(4-(2-amino-6-((R)-2,2,2-trifluoro-1-(3′-methoxy-[1,1′-biphenyl]-4-yl)ethoxy)pyrimidine-4-yl)cyclohex-3-ene-1-yl)propionic acid hydrochloride]
- pIC50 [2]: 6.55

SMILES: Cc1ccn(-c2cc(Cl)ccc2[C@@H](Oc2cc(C3=CCC(C[C@H](N)C(=O)O)CC3)nc(N)n2)C(F)(F)F)n1 (stereo partly drawn) [Example 45, (2S)-2-amino-3-(4-(2-amino-6-((R)-1-(4-chloro-2-(3-methyl-1H-pyrazole-1-yl)phenyl)-2,2,2-trifluoroethoxy)pyrimidine-4-yl)cyclohex-3-ene-1-yl)propionic acid]
- pIC50 (TPH1): 7.01
- pIC50 [1]: 7.01

SMILES: N[C@@H](Cc1ccc(-c2csc3c(OC(c4ccc(Cl)cc4-c4ccc(F)cc4)C(F)(F)F)ncnc23)cc1)C(=O)O (stereo partly drawn) [Example 46, (2S)-2-amino-3-(4-(4-(1-(5-chloro-4′-fluoro-[1,1′-biphenyl]-2-yl)-2,2,2-trifluoroethoxy)thieno[3,2-d]pyrimidine-7-yl)phenyl)propionic acid hydrochloride]
- pIC50 [1]: 5.06

SMILES: Nc1nc(OC(c2ccc(Cl)cc2-c2ccccc2)C(F)(F)F)cc(C2=CCC(C[C@H](N)C(=O)O)CC2)n1 (stereo partly drawn) [Example 48, (2S)-2-amino-3-(4-(2-amino-6-(1-(5-chloro-[1,1′-biphenyl]-2-yl)-2,2,2-trifluoroethoxy)pyrimidine-4-yl)cyclohex-3-ene-1-yl)propionic acid hydrochloride]
- pIC50 [1]: 6.36

SMILES: COc1cccc(-c2ccc([C@@H](Oc3cc(C4=CCC(C[C@H](N)C(=O)O)CC4)nc(N)n3)C(F)(F)F)cc2)c1 (stereo partly drawn) [Example 58, (2S)-2-amino-3-(4-(2-amino-6-((R)-2,2,2-trifluoro-1-(3′-methoxy-[1,1′-biphenyl]-4-yl)ethoxy)pyrimidine-4-yl)cyclohex-3-ene-1-yl)propionic acid]
- pIC50 [1]: 6.69

SMILES: Nc1nc(O[C@H](c2ccc(Cl)cc2C2=CCCOC2)C(F)(F)F)cc(C2=CCC(C[C@H](N)C(=O)O)CC2)n1 (stereo partly drawn) [Example 66, (2S)-2-amino-3-(4-(2-amino-6-((R)-1-(4-chloro-2-(5,6-dihydro-2H-pyran-3-yl)phenyl)-2,2,2-trifluoroethoxy)pyrimidine-4-yl)cyclohex-3-ene-1-yl)propionic acid hydrochloride]
- pIC50 [2]: 6.90

SMILES: Nc1nc(O[C@H](c2ccc(Cl)cc2C2=CCCOC2)C(F)(F)F)cc(C2=CCC(C[C@H](N)C(=O)O)CC2)n1 (stereo partly drawn) [Example 67, (2S)-2-amino-3-(4-(2-amino-6-((R)-1-(4-chloro-2-(5,6-dihydro-2H-pyran-3-yl)phenyl)-2,2,2-trifluoroethoxy)pyrimidine-4-yl)cyclohex-3-ene-1-yl)propionic acid]
- pIC50 (TPH1): 7.04

SMILES: N[C@@H](Cc1ccc(-c2csc3c(O[C@H](c4ccc(Cl)cc4C4=CCCOC4)C(F)(F)F)ncnc23)cc1)C(=O)O [Example 69, (S)-2-amino-3-(4-(4-((R)-1-(4-chloro-2-(5,6-dihydro-2H-pyran-3-yl)phenyl)-2,2,2-trifluoroethoxy)thieno[3,2-d]pyrimidine-7-yl)phenyl)propionic acid hydrochloride]
- pIC50 [2]: 6.58

SMILES: N[C@@H](Cc1ccc(-c2csc3c(O[C@H](c4ccc(Cl)cc4C4=CCCOC4)C(F)(F)F)ncnc23)cc1)C(=O)O [Example 70, (S)-2-amino-3-(4-(4-((R)-1-(4-chloro-2-(5,6-dihydro-2H-pyran-3-yl)phenyl)-2,2,2-trifluoroethoxy)thieno[3,2-d]pyrimidine-7-yl)phenyl)propionic acid]
- pIC50 [1]: 6.43

SMILES: Nc1nc(O[C@H](c2ccc(Cl)cc2C2=CCC(F)(F)CC2)C(F)(F)F)cc(C2=CCC(C[C@H](N)C(=O)O)CC2)n1 (stereo partly drawn) [Example 75, (2S)-2-amino-3-(4-(2-amino-6-((R)-1-(5-chloro-4′,4′difluoro-2′,3′,4′,5′-tetrahydro-[1,1′-biphenyl]-2-yl)-2,2,2-trifluoroethoxy)pyrimidine-4-yl)cyclohex-3-ene-1-yl)propionic acid hydrochloride]
- pIC50 [1]: 6.35

SMILES: Cc1ccn(-c2cc(Cl)ccc2[C@@H](Oc2cc(C3=CCC4(CC3)CNC(C(=O)O)C4)nc(N)n2)C(F)(F)F)n1 (stereo partly drawn) [Example 79, 8-(2-amino-6-((R)-1-(4-chloro-2-(3-methyl-1H-pyrazole-1-yl)phenyl)-2,2,2-trifluoroethoxy)pyrimidine-4-yl)-2-azaspiro[4.5]dec-7-ene-3-carboxylic acid hydrochloride]
- pIC50 [2]: 6.73

SMILES: Cc1ccn(-c2cc(Cl)ccc2[C@@H](Oc2cc(C3=CCC4(CC3)CNC(C(=O)O)C4)nc(N)n2)C(F)(F)F)n1 (stereo partly drawn) [Example 80, 8-(2-amino-6-((R)-1-(4-chloro-2-(3-methyl-1H-pyrazole-1-yl)phenyl)-2,2,2-trifluoroethoxy)pyrimidine-4-yl)-2-azaspiro[4.5]dec-7-ene-3-carboxylic acid]
- pIC50 [1]: 6.71

SMILES: Nc1nc(O[C@H](c2ccc(Cl)cc2C2=CCOCC2)C(F)(F)F)cc(C2=CCC3(CC2)CNC(C(=O)O)C3)n1 (stereo partly drawn) [Example 83, 8-(2-amino-6-((R)-1-(4-chloro-2-(3,6-dihydro-2H-pyran-4-yl)phenyl)-2,2,2-trifluoroethoxy)pyrimidine-4-yl)-2-azaspiro[4.5]dec-7-ene-3-carboxylic acid hydrochloride]
- pIC50 [1]: 5.94

SMILES: Cc1ccn(-c2cc(Cl)ccc2[C@@H](Oc2ncnc3c(C4=CCC5(CC4)CNC(C(=O)O)C5)csc23)C(F)(F)F)n1 (stereo partly drawn) [Example 84, 8-(4-((R)-1-(4-chloro-2-(3-methyl-1H-pyrazole-1-yl)phenyl)-2,2,2-trifluoroethoxy)thieno[3,2-d]pyrimidine-7-yl)-2-azaspiro[4.5]dec-7-ene-3-carboxylic acid hydrochloride]
- pIC50 [1]: 6.51
